The values that follow are results of earlier work, collected in US20170015852A1, “INK COMPOSITION” (KERACOL LIMITED, priority 2014, published 2017).

Each structure is given as a SMILES string.

One data set has as its system rats. The following applies: high doses.
A further data set deals with human health. The following applies: toxicological reports; approved food colorants E100, E120, E163.

`O=C1OC2(c3ccccc31)c1cc(I)c(O)c(I)c1Oc1c2cc(I)c(O)c1I` [erythrosine]: the solubility in ethanol was 0.79 % w/v. Further, in the data set with rats, the carcinogenicity result is reported as “cause cancer”.

With `Cc1c(C(=O)O)c(O)cc2c1C(=O)c1c(O)c([C@@H]3O[C@H](CO)[C@@H](O)[C@H](O)[C@H]3O)c(O)c(O)c1C2=O` [carminic acid], the “threat to human health” value with human health is “pose no threat to human health”.
